Test results: PMC9105976, “A Novel β-Hairpin Peptide Z-d14CFR Enhances Multidrug-Resistant Bacterial Clearance in a Murine Model of Mastitis” (International Journal of Molecular Sciences, 2022)
Marks after values point to notes of the source that are not given here. No end group written: not given here.

What was measured:
[1] = Retention time of peptide in HPLC (hydrophobicity); type: physicochemical; conditions: used as measure of hydrophobicity (order Z-d14CR > Z-d14CF > Z-d13 > Z-d14CFR > Z-d14C); column and gradient not given
[2] = test system: Bacillus cereus CAU 202020; experiment: MIC/MBC, microdilution broth method; type: cell-based; conditions: Bacillus cereus CAU 202020 (MDR isolate)
Summary of the method: (§1)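 Broth microdilution: inoculum 1 × 10^6 CFU/mL in 10 mM PBS (from OD600 0.6 culture); peptide or ampicillin/gentamicin added 1:1 by volume, pre-mix range 0.001–2 mg/mL.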

[3] = test system: Escherichia coli CAU 201920; experiment: MIC/MBC, microdilution broth method; type: cell-based; conditions: Escherichia coli CAU 201920 (MDR isolate)
Summary of the method: as §1

[4] = test system: Salmonella typhimurium ATCC14028; experiment: MIC/MBC, microdilution broth method; type: cell-based; conditions: Salmonella typhimurium ATCC14028
Summary of the method: as §1

[5] = test system: Proteus vulgaris CVCC1971; experiment: MIC/MBC, microdilution broth method; type: cell-based; conditions: Proteus vulgaris CVCC1971
Summary of the method: as §1

[6] = test system: Staphylococcus haemolyticus CAU202078; experiment: MIC/MBC, microdilution broth method; type: cell-based; conditions: Staphylococcus haemolyticus CAU202078 (MDR isolate)
Summary of the method: as §1

[7] = test system: Escherichia coli CAU 201919; experiment: MIC/MBC, microdilution broth method; type: cell-based; conditions: Escherichia coli CAU 201919 (MDR isolate)
Summary of the method: as §1

[8] = test system: Staphylococcus aureus ATCC29213; experiment: MIC/MBC, microdilution broth method; type: cell-based; conditions: Staphylococcus aureus ATCC29213
Summary of the method: as §1

[9] = test system: Escherichia coli CVCC1450; experiment: MIC/MBC, microdilution broth method; type: cell-based; conditions: Escherichia coli CVCC1450
Summary of the method: as §1

[10] = test system: Escherichia coli ATCC25922; experiment: MIC/MBC, microdilution broth method; type: cell-based; conditions: Escherichia coli ATCC25922
Summary of the method: as §1

[11] = test system: Streptococcus suis CVCC3307; experiment: MIC/MBC, microdilution broth method; type: cell-based; conditions: Streptococcus suis CVCC3307
Summary of the method: as §1

[12] = test system: Klebsiella pneumoniae CAU202084; experiment: MIC/MBC, microdilution broth method; type: cell-based; conditions: Klebsiella pneumoniae CAU202084 (MDR isolate)
Summary of the method: as §1

[13] = test system: Gram-positive and Gram-negative bacteria; experiment: Antimicrobial activity, statements over the bacterial panel; type: cell-based; conditions: data not shown
Description: The MIC of peptides against bacteria was carried out by the microdilution broth method. The bacterial culture (OD 600 = 0.6) was diluted in 10 mM PBS to 1 × 10^6 CFU/mL. […]

MRSA ATCC33591 = experiment: MIC/MBC, microdilution broth method; type: cell-based, S. aureus
Summary of the method: as §1

[14] = 1 × 10^6 CFU/mL, 18 h at 37 °C, NA = no antimicrobial activity at 1 mg/mL
[15] = kills 99.9% bacteria, NA = no activity at 1 mg/mL
[16] = minimum concentration which kills 99.9% bacteria, NA = no activity at 1 mg/mL

Substance: GGYCNSKSVCVCR-NH2 (disulfide (positions not given here)) [Z-d13, Z. atratus defensin β-sheet region analogue, …-NH2]
- RT, retention time of peptide in HPLC [1]: 9.077 min
- MIC [2, 14]: NA (NA) (No antimicrobial activity at 1 mg/mL)
- MBC [2, 15]: NA (NA) (No antimicrobial activity at 1 mg/mL)
- MIC [3, 14]: NA (NA) (No antimicrobial activity at 1 mg/mL)
- MBC [3, 15]: NA (NA) (No antimicrobial activity at 1 mg/mL)
- MIC [4, 14]: NA (NA) (No antimicrobial activity at 1 mg/mL)
- MBC [4, 15]: NA (NA) (No antimicrobial activity at 1 mg/mL)
- MIC [5, 14]: NA (NA) (No antimicrobial activity at 1 mg/mL)
- MBC [5, 15]: NA (NA) (No antimicrobial activity at 1 mg/mL)
- MIC [6, 14]: NA (NA) (No antimicrobial activity at 1 mg/mL)
- MBC [6, 15]: NA (NA) (No antimicrobial activity at 1 mg/mL)
- MIC [7, 14]: NA (NA) (No antimicrobial activity at 1 mg/mL)
- MBC [7, 15]: NA (NA) (No antimicrobial activity at 1 mg/mL)
- MIC [8, 14]: NA (NA) (No antimicrobial activity at 1 mg/mL)
- MBC [8, 15]: NA (NA) (No antimicrobial activity at 1 mg/mL)
- MIC [9, 14]: NA (NA) (No antimicrobial activity at 1 mg/mL)
- MBC [9, 16]: NA (NA) (No antimicrobial activity at 1 mg/mL)
- MIC [10, 14]: NA (NA) ^c (No antimicrobial activity at 1 mg/mL)
- MBC [10, 16]: NA (NA) ^c (No antimicrobial activity at 1 mg/mL)
- MIC [11, 14]: NA (NA) (No antimicrobial activity at 1 mg/mL)
- MBC [11, 15]: NA (NA) (No antimicrobial activity at 1 mg/mL)
- MIC [12, 14]: NA (NA) (No antimicrobial activity at 1 mg/mL)
- MBC [12, 15]: NA (NA) (No antimicrobial activity at 1 mg/mL)
- activity against bacteria at 3 mg/mL [13]: slight activity
- MIC (MRSA ATCC33591; MRSA (methicillin-resistant S. aureus) ATCC33591, 1 × 10^6 CFU/mL, 18 h at 37 °C, NA = no antimicrobial activity at 1 mg/mL): NA (NA) (No antimicrobial activity at 1 mg/mL)
- MBC (MRSA ATCC33591; MRSA ATCC33591, kills 99.9% bacteria, NA = no activity at 1 mg/mL): NA (NA) (No antimicrobial activity at 1 mg/mL)
